{"source": "patent US20160113911A1", "about": "“METHODS AND COMPOSITIONS FOR THE TREATMENT OF CANCER” (THE GENERAL HOSPITAL CORPORATION, priority 2013, published 2016)", "molecules": {"B1": {"name": "KDM4A WT: wild type KDM4A (major allele E482) (protein)", "chain": "MASESETLNPSARIMTFYPTMEEFRNFSRYIAYIESQGAHRAGLAKVVPPKEWKPRASYDDIDDLVIPAPIQQLVTGQSGLFTQYNIQKKAMTVREFRKIANSDKYCTPRYSEFEELERKYWKNLTFNPPIYGADVNGTLYEKHVDEWNIGRLRTILDLVEKESGITIEGVNTPYLYFGMWKTSFAWHTEDMDLYSINYLHFGEPKSWYSVPPEHGKRLERLAKGFFPGSAQSCEAFLRHKMTLISPLMLKKYGIPFDKVTQEAGEFMITFPYGYHAGFNHGFNCAESTNFATRRWIEYGKQAVLCSCRKDMVKISMDVFVRKFQPERYKLWKAGKDNTVIDHTLPTPEAAEFLKESELPPRAGNEEECPEEDMEGVEDGEEGDLKTSLAKHRIGTKRHRVCLEIPQEVSQSELFPKEDLSSEQYEMTECPAALAPVRPTHSSVRQVEDGLTFPDYSDSTEVKFEELKNVKLEEEDEEEEQEAAALDLSVNPASVGGRLVFSGSKKKSSSSLGSGSSRDSISSDSETSEPLSCRAQGQTGVLTVHSYAKGDGRVTVGEPCTRKKGSAARSFSERELAEVADEYMFSLEENKKSKGRRQPLSKLPRHHPLVLQECVSDDETSEQLTPEEEAEETEAWAKPLSQLWQNRPPNFEAEKEFNETMAQQAPHCAVCMIFQTYHQVEFGGFNQNCGNASDLAPQKQRTKPLIPEMCFTSTGCSTDINLSTPYLEEDGTSILVSCKKCSVRVHASCYGVPPAKASEDWMCSRCSANALEEDCCLCSLRGGALQRANDDRWVHVSCAVAILEARFVNIAERSPVDVSKIPLPRFKLKCIFCKKRRKRTAGCCVQCSHGRCPTAFHVSCAQAAGVMMQPDDWPFVVFITCFRHKIPNLERAKGALQSITAGQKVISKHKNGRFYQCEVVRLTTETFYEVNFDDGSFSDNLYPEDIVSQDCLQFGPPAEGEVVQVRWTDGQVYGAKFVASHPIQMYQVEFEDGSQLVVKRDDVYTLDEELPKRVKSRLSVASDMRFNEIFTEKEVKQEKKRQRVINSRYREDYIEPALYRAIME", "modifications": "left off: large carriers"}}, "key": {"HEK 293T cells [1]": {"tested_on": "HEK 293T cells", "assay": "MTT proliferation and viability assay", "type": "cell-based, human", "settings": "shRNA 4A.10 or 4A.06, 48h", "method": "For tissue culture and generation of stable cell lines see (Black et al., 2010). Rapamycin (LC Laboratories) and AZD8055 (Selleckchem) were used at indicated concentrations. […] JIB-04 (Xcessbio) was used at a final concentration of 250 nM. For the translation assays, DMEM depleted of Methionine and Cysteine (Life Technologies 21013-024) was used.\nMTT assays were performed following supplier's instructions from the Cell Proliferation Kit I™ (MTT) from Roche. Briefly, 1×10^4 cells were seeded per well of a 96 well plate and grown for 24h before treatment. Forty-eight hours later, cells were assayed."}, "RPE cells [2]": {"tested_on": "RPE cells", "assay": "Apoptosis by annexin V staining", "type": "cell-based, human", "settings": "RPE CTRL and KDM4A overexpressing cells"}, "p53": {"tested_on": "p53", "assay": "p53 stabilization and p53 target gene induction after DNA damage", "type": "cell-based, human", "settings": "RPE GFP-CTRL and GFP-KDM4A cells; 1 uM for 16 hrs", "method": "Western blots were performed as in (Black et al., 2010). Antibodies used were: KDM4A (Neuro mAB, 75-189), β-actin (Millipore), GFP (Neuro mAB, 73-131), RFP (Abcam, ab62341), p53 (Santa Cruz, sc-126), MCM2 (Cell Signaling, #3619S), MCM3 (Cell Signaling, #4012S), MCM7 (Cell Signaling, #3735S), Halo (Promega), Actinin (Santa Cruz, sc-17829), HA 12CA5 (Roche), FLAG M2 (Sigma), DNA Pol α (Abcam, ab31777)."}, "KDM4A": {"tested_on": "KDM4A", "assay": "KDM4A protein levels by western blot", "type": "cell-based, human", "settings": "RPE cells", "method": "Western blot analyses were performed according to (Black et al., 2010).\nWestern blots were performed as in (Black et al., 2010). Briefly, adherent cells were either scraped directly into PBS, or washed with PBS, trypsinized and collected by centrifuging at 2,000 RPM for 5 minutes. For preparation of whole-cell lysates, cell pellets were washed once in ice-cold PBS and resuspended in RIPA lysis buffer [50 mM Tris pH 7.4, 150 mM NaCl, 0.25% Sodium Deoxycholate, 1% NP40, 1 mM EDTA, 10% Glycerol] supplemented with complete protease inhibitor and PhosSTOP™ phosphatase inhibitor cocktails (Roche). Cells were lysed on ice for 15 minutes and immediately frozen at −80° C. for 10 min. Lysates were subsequently sonicated at 70% amplitude for 15 minutes in a QSonica Q800R™ and cleared of cell debris by centrifuging at 12,000 RPM for 15 minutes, before being analyzed by western blotting. For HIF1α expression, adherent cells were washed twice with ice-cold PBS and scraped directly in warmed 1× Laemmli buffer. Samples were sonicated at 70% amplitude for 15 minutes and boiled immediately prior to western blotting."}, "RPE cells [3]": {"tested_on": "RPE cells", "assay": "Flow cytometry cell cycle analysis", "type": "cell-based, human", "method": "Asynchronously growing, or G1/S arrested cells were prepared and fixed as in (Black et al., 2010). Cells were stained with 10 μM EdU for 1 hour prior to collection. Cell cycle was analyzed by PI staining or EdU incorporation using Click-IT EdU™ Flow Cytometry Assay Kit (Life Technologies). Flow cytometry of CD4+ T cells and cell cycle distribution were analyzed using a BD FACS ARIA II™."}, "[4]": {"tested_on": "1q12h copy gain in RPE cells", "assay": "FISH for site-specific copy gain", "type": "cell-based, human", "settings": "RPE cells", "method": "FISH was performed as described in (Manning et al., 2010). Probes for 1q12h, 1q telomere, and chromosome 2, 6, 8, and X alpha satellite were purchased from Rainbow Scientific. Probes for 1q12 (RP11-80L2), Xq13.2 (RP11-451A22), Xq13.1 (RP11-177A4) were purchased as BAC clones from Children's Hospital Oakland Research Institute (CHORI BacPac) FISH verified clone repository. Oligonucleotide probes for 1q21.2 (BCL9) and 1q23.3 were purchased from Agilent (SureFISH). BACS were prepared utilizing PureLink HiPure Plasmid Filter Maxiprep kit (Life Technologies) using the recommended modified wash buffer. Probes were nick translated (Abbot Molecular Kit) in the presence of fluorescently labeled dTTP (Enzo Life Science). Images of multiple planes of fields of nuclei were acquired on an Olympus IX81 Spinning Disk Microscope and analyzed using Slidebook 5.0 software. We used a conservative scoring metric for copy gain. Any foci that were touching were scored as a single foci to prevent increased numbers due to normally replicated foci. For RPE cells, copy gain was scored as any cell with 3 or more distinct foci. For 293T cells, copy gain was scored for any cell with 5 or more distinct foci. For RPE cells each experiment includes at least one replicate from the two different polyclonal stable cell preparations. At least 100 cells for each replicate were scored for all experiments except analysis of single cell clones.\nCells were plated onto culture dishes and allowed to adhere for 20-24 hrs in normoxia (5% CO2, 21% O2, and 74% N2). For hypoxic treatment, cells were maintained in a HERA Cell 150™ incubator (Thermo Scientific) flushed with 5% CO2, 1% O2 or 4% O2, and balanced with N2 for the duration of the experiment. Incubator calibrations were carried out by Bianchi Associates Calibrations/Verifications.\nTo release, cells were washed twice with culture medium pre-conditioned in normoxia or hypoxia, and supplied with fresh pre-conditioned media. For JIB-04 treatment, normoxic cells were pre-treated with 62.5 nM JIB-04 (Xcessbio) for 24 hrs, then treated again with JIB-04 and either transferred to 1% O2 or maintained in normoxia for an additional 24 hrs. Succinate was administered at a final concentration of 2 mM and cells were either maintained in normoxia for 72 hrs or maintained in normoxia for 48 hrs prior to being transferred to 1% O2 for 24 hrs.\nFISH was performed as described in (Black et al., 2013; Manning et al., 2010). Probes for 1q12h, 1q telomere, chromosome 8 centromere (alpha satellite), and X centromere (alpha satellite) were purchased from Rainbow Scientific. Probes for Xq13.1 (RP11-177A4), Zebrafish BCL9 (CH73-15J19) and Zebrafish IGBP1 (CH73-223D24) were purchased as BAC clones from Children's Hospital Oakland Research Institute (CHORI BacPac) clone repository. Probes for 1q21.2 (BCL9) and 1q23.3 were purchased from Agilent (SureFISH).\nFISH was performed as described in (Black et al., 2013; Manning et al., 2010). Probes for 1q12h, 1q telomere, chromosome 8 centromere (alpha satellite), and X centromere (alpha satellite) were purchased from Rainbow Scientific. Probes for Xq13.1 (RP11-177A4), Zebrafish BCL9 (CH73-15J19) and Zebrafish IGBP1 (CH73-223D24) were purchased as BAC clones from Children's Hospital Oakland Research Institute (CHORI BacPac) clone repository. Probes for 1q21.2 (BCL9) and 1q23.3 were purchased from Agilent (SureFISH). BACS were prepared utilizing PureLink HiPure™ Plasmid Filter Maxiprep kit (Life Technologies) using the recommended modified wash buffer. Probes were nick translated (Abbot Molecular Kit) in the presence of fluorescently labeled dTTP (Enzo Life Science). Images of multiple planes of fields of nuclei were acquired on an Olympus IX81 T Spinning Disk Microscope and analyzed using Slidebook™ 5.0 software. A conservative scoring metric was used for copy gain. Any foci that were touching were scored as a single copy to prevent increased numbers due to normally replicated foci."}, "[5]": {"tested_on": "cells depleted of KDM4A (shA10)", "assay": "Rapamycin sensitivity of KDM4A-depleted (shA10) cells transfected with wild-type or mutant KDM4A", "type": "cell-based", "settings": "shA10 depletion background", "method": "Cells were depleted of KDM4A (shA10) and transfected with wild-type (WT) or mutant KDM4A. […] This differed from WT expression in the depletion background, which was less sensitive. […]\nThe effect of KMD4A mutations on drug sensitivity was examined by depleting cells of KDM4A (shA10) and then transfecting with wild-type or mutant KDM4A. The sensitivity of the cells to rapamycin was then determined. […] This differed from WT expression in the depletion background, which was less sensitive."}, "HEK 293T cells [6]": {"tested_on": "HEK 293T cells", "assay": "Monitored cell proliferation assay (xCELLigence growth curves, doubling time)", "type": "cell-based, human", "method": "Seventy two hours post transfection 1×10^4 HEK 293T cells were seeded per well of a 96 well plate, and then treated after 24h. Cell proliferation was monitored with an xCELLigence system (Roche) (Vistejnova et al., 2009)."}}}
{"molecule": "COc1ccc(-c2ccc3c(N4CCOC[C@@H]4C)nc(N4CCOC[C@@H]4C)nc3n2)cc1CO", "note": "[AZD8055]", "values": [{"measurement": "drug sensitivity of KDM4A shRNA cells vs control vector (MTT)", "setting": "HEK 293T cells [1]", "result": "more sensitive"}]}
{"molecule": "NC(=O)NO", "note": "[HU, hydroxyurea]", "values": [{"measurement": "apoptosis (percent Annexin V positive cells)", "setting": "RPE cells [2]", "result": "no observed increased apoptosis"}]}
{"molecule": "COc1cccc2c1C(=O)c1c(O)c3c(c(O)c1C2=O)C[C@@](O)(C(=O)CO)C[C@@H]3O[C@H]1C[C@H](N)[C@H](O)[C@H](C)O1", "note": "[doxorubicin]", "values": [{"measurement": "p53 stabilization and p53 target gene activation", "setting": "p53", "result": "resulted in stabilization of p53 and activation of p53 target genes"}, {"measurement": "apoptosis (percent Annexin V positive cells)", "setting": "RPE cells [2]", "result": "could induce apoptosis in both CTRL and KDM4A cells"}]}
{"molecule": "O=C(O)CCC(=O)O", "note": "[succinate, reference compound]", "values": [{"measurement": "KDM4A protein levels in hypoxia", "setting": "KDM4A; 1% O2", "result": "did not alter KDM4A stabilization"}, {"measurement": "cell cycle profile", "setting": "RPE cells [3]; normoxia and hypoxia", "result": "did not alter KDM4A stabilization or cell cycle progression"}, {"measurement": "hypoxia-dependent copy gain of 1q12h", "setting": "[4]; 1% O2 24 hours, JIB-04 62.5 nM or 2 mM succinate pre-treatment, or overexpression", "result": "sufficient to abrogate hypoxia-dependent copy gain of 1q12h"}, {"measurement": "hypoxia-induced 1q12h copy number gains", "setting": "[4]; 4% oxygen, transfection or 2 mM succinate for 24 hours", "result": "antagonized"}]}
{"molecule": "Tunicamycin", "values": [{"measurement": "KDM4A protein levels under stress", "setting": "KDM4A; 24 hours", "result": "significantly increased KDM4A levels"}, {"measurement": "cell cycle profile under stress", "setting": "RPE cells [3]; 24 hours", "result": "resulted in altered cell cycle profiles"}, {"measurement": "site-specific copy gain (1q12h and 1q21.2) under stress", "setting": "[4]; 24 hours, 2 μg/ml Tunicamycin", "result": "did not promote site-specific copy gain"}]}
{"molecule": "B1", "values": [{"measurement": "sensitivity of cells to rapamycin", "setting": "[5]", "result": "reduced the sensitivity of the cells"}, {"measurement": "rescue of increased sensitivity to AZD8055 due to KDM4A depletion (doubling time 5h-35h)", "setting": "HEK 293T cells [6]; shRNA KDM4A plus non targetable GFP-KDM4A constructs", "result": "rescues"}, {"measurement": "rescue of increased sensitivity to Rapamycin of KDM4A depleted cells (doubling time 5h-35h)", "setting": "HEK 293T cells [6]; shRNA KDM4A plus shRNA-resistant GFP-KDM4A constructs", "result": "rescues"}]}
